Target: T1, human CD73 (Homo sapiens, UniProt P21589)
T1 sequence (P21589 27-549): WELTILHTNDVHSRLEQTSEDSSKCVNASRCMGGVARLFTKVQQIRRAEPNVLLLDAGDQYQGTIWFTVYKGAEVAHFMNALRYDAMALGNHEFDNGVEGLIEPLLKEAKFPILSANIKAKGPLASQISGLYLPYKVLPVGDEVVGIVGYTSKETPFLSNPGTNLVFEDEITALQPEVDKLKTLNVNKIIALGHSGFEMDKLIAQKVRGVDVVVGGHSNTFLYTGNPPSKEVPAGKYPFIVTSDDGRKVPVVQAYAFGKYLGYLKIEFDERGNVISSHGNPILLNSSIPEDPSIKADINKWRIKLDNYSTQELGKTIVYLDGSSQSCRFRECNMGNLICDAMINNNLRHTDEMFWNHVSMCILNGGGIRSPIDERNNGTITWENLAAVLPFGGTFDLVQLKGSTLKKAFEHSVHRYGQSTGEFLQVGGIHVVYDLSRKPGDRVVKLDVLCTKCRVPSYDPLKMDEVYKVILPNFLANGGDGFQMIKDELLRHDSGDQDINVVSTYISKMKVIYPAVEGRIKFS
Test: Inhibition of Ecto-5′-nucleotidase (CD73) activity in CHO-CD73 cells, phosphate release from AMP
Format: cell-based
Conditions: CHO-K1 cells stably transfected with human CD73; 25 μM AMP; 50 minutes, 37° C.; read-out: Potency: CD73 IC50

SMILES	IC50 [nM]
N#Cc1cnc(Cn2nccc2-c2cc(Cl)c3nnn(-c4ccc5[nH]c(=O)[nH]c5c4)c3c2)c(Cl)c1 [Example 269]	100 to 1000
Cc1cc(C#N)ccc1Cn1nccc1-c1cc(Cl)c2nnn(-c3ccc4[nH]c(=O)[nH]c4c3)c2c1 [Example 270]	< 100
N#Cc1ccc(Cn2nccc2-c2cc(F)c3nnn(-c4ccc5[nH]c(=O)[nH]c5c4)c3c2)c(C(F)(F)F)c1 [Example 271]	100 to 1000
N#Cc1cc(F)c(Cn2nccc2-c2cc(Cl)c3nnn(-c4ccc5[nH]c(=O)[nH]c5c4)c3c2)cc1F [Example 272]	100 to 1000
N#Cc1cc(F)c(Cn2nccc2-c2cc(Cl)c3nnn(-c4ccc5[nH]c(=O)[nH]c5c4)c3c2)c(F)c1 [Example 273]	100 to 1000
Nc1nn(-c2ccc3cn[nH]c3c2)c2cc(-c3ccnn3Cc3ccc(Cl)cn3)cnc12 [Example 274]	100 to 1000
O=c1[nH]c2ccc(-n3nnc4c(Cl)cc(-c5ccnn5C5Cc6ccc(Cl)cc6C5)cc43)cc2[nH]1 (centres unmarked) [Example 275]	100 to 1000
N#Cc1cc(F)c(Cn2nccc2-c2cc(F)c3nnn(-c4ccc5[nH]c(=O)[nH]c5c4)c3c2)c(Cl)c1 [Example 276]	> 1000
N#Cc1ccc(Cn2nccc2-c2cc(F)c3nnn(-c4ccc5[nH]c(=O)[nH]c5c4)c3c2)c(CN[C@H]2CCOC2)c1 [Example 277]	> 1000
N#Cc1ccc(Cn2nccc2-c2cc(F)c3nnn(-c4ccc5[nH]c(=O)[nH]c5c4)c3c2)c(CN2CCCC2)c1 [Example 278]	> 1000
COCc1cc(C#N)ccc1Cn1nccc1-c1cc(F)c2nnn(-c3ccc4[nH]c(=O)[nH]c4c3)c2c1 [Example 279]	100 to 1000
Cc1cc(C#N)cnc1Cn1nccc1-c1cc(F)c2nnn(-c3ccc4[nH]c(=O)[nH]c4c3)c2c1 [Example 280]	> 1000
N#Cc1ccc(Cn2nccc2-c2cnc3c(N)nn(-c4ccc5cn[nH]c5c4)c3c2)nc1 [Example 281]	100 to 1000
O=c1[nH]c2ccc(-n3nnc4c(F)cc(-c5ccnn5Cc5cccc(F)c5Cl)cc43)cc2[nH]1 [Example 282]	100 to 1000
O=c1[nH]c2ccc(-n3nnc4c(F)cc(-c5ccnn5Cc5cccc(Cl)c5Cl)cc43)cc2[nH]1 [Example 283]	100 to 1000
COc1cc(Cl)ccc1Cn1nccc1-c1cc(F)c2nnn(-c3ccc4[nH]c(=O)[nH]c4c3)c2c1 [Example 284]	100 to 1000
N#Cc1ccc(Cn2nccc2-c2cc(F)c3nnn(-c4ccc5[nH]c(=O)[nH]c5c4)c3c2)c(CN2CCC2C(=O)O)c1 (centres unmarked) [Example 285]	> 1000
N#Cc1ccc(Cn2nccc2-c2cc(F)c3nnn(-c4ccc5[nH]c(=O)[nH]c5c4)c3c2)c(CNC2CCCC2)c1 [Example 286]	100 to 1000
Nc1cccc(Cn2nccc2-c2cc(Cl)c3nnn(-c4ccc5[nH]c(=O)[nH]c5c4)c3c2)n1 [Example 287]	> 1000
N#Cc1ccc(Cn2nccc2-c2cc(Cl)c3nnn(-c4ccc5[nH]c(=O)[nH]c5c4)c3c2)c(N2CCOCC2)c1 [Example 288]	> 1000
CC(=O)c1cc(C#N)ccc1Cn1nccc1-c1cc(F)c2nnn(-c3ccc4[nH]c(=O)[nH]c4c3)c2c1 [Example 289]	100 to 1000

SMILES	IC50 [nM]
N#Cc1ccc(Cn2nccc2-c2cc(F)c3nnn(-c4ccc5[nH]c(=O)[nH]c5c4)c3c2)c(C(N)=O)c1 [Example 290]	100 to 1000
N#Cc1ccc(Cn2nccc2-c2cc(F)c3nnn(-c4ccc5[nH]c(=O)[nH]c5c4)c3c2)c(S(=O)(=O)c2ccccc2)c1 [Example 291]	100 to 1000
N#Cc1ccc(Cn2nccc2-c2cc(F)c3nnn(-c4ccc5[nH]c(=O)[nH]c5c4)c3c2)c(OC(F)(F)F)c1 [Example 292]	100 to 1000
Cc1cc(-n2nccc2-c2cc(Cl)c3nnn(-c4ccc5[nH]c(=O)[nH]c5c4)c3c2)ccn1 [Example 293]	100 to 1000
N#Cc1ccc(Cn2nccc2-c2cc(F)c3nnn(-c4ccc5[nH]c(=O)[nH]c5c4)c3c2)c(CN2CC(C(=O)O)C2)c1 [Example 294]	100 to 1000
Nc1nn(-c2ccc3[nH]c(=O)[nH]c3c2)c2cc(-c3ccnn3Cc3ccc(Cl)cn3)cnc12 [Example 295]	> 1000
N#Cc1ccc(Cn2nccc2-c2cc(F)c3nnn(-c4ccc5[nH]c(=O)[nH]c5c4)c3c2)c(CNCC2CCCC2)c1 [Example 296]	100 to 1000
N#Cc1ccc(Cn2nccc2-c2cc(F)c3nnn(-c4ccc5[nH]c(=O)[nH]c5c4)c3c2)c(CO)c1 [Example 297]	< 100
N#Cc1ccc(Cn2nccc2-c2cc(F)c3nnn(-c4ccc5[nH]c(=O)[nH]c5c4)c3c2)c(-c2ncco2)c1 [Example 299]	100 to 1000
Cc1cc(-n2nccc2-c2cc(Cl)c3nnn(-c4ccc5[nH]c(=O)[nH]c5c4)c3c2)cc(C)n1 [Example 300]	100 to 1000
CS(=O)(=O)c1cccc(-n2nccc2-c2cc(Cl)c3nnn(-c4ccc5[nH]c(=O)[nH]c5c4)c3c2)c1 [Example 301]	100 to 1000
Cc1cc(C#N)ccc1Cn1nccc1-c1cc(F)c2nnn(-c3ccc4[nH]c(=O)[nH]c4c3)c2c1 [Example 302]	100 to 1000
Cn1nccc1-c1cc(C#N)ccc1Cn1nccc1-c1cc(F)c2nnn(-c3ccc4[nH]c(=O)[nH]c4c3)c2c1 [Example 303]	100 to 1000
N#Cc1ccc(Cn2nccc2-c2cc(F)c3nnn(-c4ccc5[nH]c(=O)[nH]c5c4)c3c2)c(-c2ccn[nH]2)c1 [Example 304]	100 to 1000
CC(C)(O)C1CN(Cc2cc(C#N)ccc2Cn2nccc2-c2cc(F)c3nnn(-c4ccc5[nH]c(=O)[nH]c5c4)c3c2)C1 [Example 305]	100 to 1000
N#Cc1ccc(Cn2nccc2-c2cc(F)c3nnn(-c4ccc5[nH]c(=O)[nH]c5c4)c3c2)c(C(=O)O)c1 [Example 306]	100 to 1000
CNC(=O)c1cc(C#N)ccc1Cn1nccc1-c1cc(F)c2nnn(-c3ccc4[nH]c(=O)[nH]c4c3)c2c1 [Example 307]	100 to 1000
N#Cc1ccc(Cn2nccc2-c2cc(F)c3nnn(-c4ccc5[nH]c(=O)[nH]c5c4)c3c2)c(C(=O)N2CC(O)C2)c1 [Example 308]	> 1000
CCc1cc(C#N)ccc1Cn1nccc1-c1cc(F)c2nnn(-c3ccc4[nH]c(=O)[nH]c4c3)c2c1 [Example 309]	100 to 1000
N#Cc1ccc(Cn2nccc2-c2cc(F)c3nnn(-c4ccc5[nH]c(=O)[nH]c5c4)c3c2)c(S(N)(=O)=O)c1 [Example 310]	100 to 1000
N#Cc1ccc(Cn2nccc2-c2cn3c(-c4ccc5[nH]c(=O)[nH]c5c4)cnc3cn2)cc1 [Example 311]	> 1000

SMILES	IC50 [nM]
CC(C)(O)c1cc(C#N)ccc1Cn1nccc1-c1cc(F)c2nnn(-c3ccc4[nH]c(=O)[nH]c4c3)c2c1 [Example 312]	> 1000
CC(O)c1cc(C#N)ccc1Cn1nccc1-c1cc(F)c2nnn(-c3ccc4[nH]c(=O)[nH]c4c3)c2c1 (centres unmarked) [Example 313]	100 to 1000
N#Cc1ccc(Cn2nccc2-c2cc3c(cn2)c(N)nn3-c2ccc3[nH]c(=O)[nH]c3c2)cc1 [Example 314]	100 to 1000
N#Cc1ccc(Cn2nccc2-c2cnc3c(N)nn(-c4ccc5[nH]c(=O)[nH]c5c4)c3c2)nc1 [Example 315]	100 to 1000
Cn1nc(-c2ccc3[nH]c(=O)[nH]c3c2)c2cc(-c3ccnn3Cc3ccc(C#N)cc3)cnc21 [Example 316]	100 to 1000
Cc1nn(-c2ccc3cn[nH]c3c2)c2cc(-c3ccnn3Cc3ccc(C#N)cc3)cnc12 [Example 317]	100 to 1000
N#Cc1cnc(Cn2nccc2-c2cc(F)c3nnn(-c4ccc5[nH]c(=O)[nH]c5c4)c3c2)c2ccccc12 [Example 318]	> 1000
N#CCc1ccc(Cn2nccc2-c2cc(F)c3nnn(-c4ccc5[nH]c(=O)[nH]c5c4)c3c2)cc1 [Example 319]	> 1000
Cc1coc(-c2cc(C#N)ccc2Cn2nccc2-c2cc(F)c3nnn(-c4ccc5[nH]c(=O)[nH]c5c4)c3c2)n1 [Example 320]	100 to 1000
Cc1cnc(-c2cc(C#N)ccc2Cn2nccc2-c2cc(F)c3nnn(-c4ccc5[nH]c(=O)[nH]c5c4)c3c2)o1 [Example 321]	100 to 1000
N#Cc1ccc(Cn2nc(C(=O)O)cc2-c2cc(F)c3nnn(-c4ccc5[nH]c(=O)[nH]c5c4)c3c2)cc1 [Example 322]	> 1000
N#Cc1ccc(Cn2ncc(Cl)c2-c2ccc3nnn(-c4ccc5[nH]c(=O)[nH]c5c4)c3c2)cc1 [Example 323]	100 to 1000
N#Cc1ccc(Cn2nccc2-c2cnc3c(c2)c(-c2ccc4[nH]c(=O)[nH]c4c2)nn3CCO)cc1 [Example 324]	> 1000
COC(=O)Cn1nc(-c2ccc3[nH]c(=O)[nH]c3c2)c2cc(-c3ccnn3Cc3ccc(C#N)cc3)cnc21 [Example 325]	> 1000
N#Cc1ccc(Cn2ncc(Cl)c2-c2cc(F)c3nnn(-c4ccc5[nH]c(=O)[nH]c5c4)c3c2)cc1 [Example 326]	100 to 1000
Cn1nc(-c2ccc3[nH]c(=O)[nH]c3c2)c2cc(-c3ccnn3Cc3ccc(C#N)cc3)ncc21 [Example 327]	100 to 1000
N#Cc1ccc(Cn2cccc2-c2cc(F)c3nnn(-c4ccc5[nH]c(=O)[nH]c5c4)c3c2)cc1 [Example 328]	100 to 1000
N#Cc1ccc(Cn2nccc2-c2cnc3c(F)nn(-c4ccc5[nH]c(=O)[nH]c5c4)c3c2)cc1 [Example 329]	100 to 1000
N#Cc1ccc(Cn2ncc(C#N)c2-c2cc(F)c3nnn(-c4ccc5[nH]c(=O)[nH]c5c4)c3c2)cc1 [Example 330]	> 1000
N#Cc1ccc(Cn2ncc(F)c2-c2cc(F)c3nnn(-c4ccc5[nH]c(=O)[nH]c5c4)c3c2)cc1 [Example 331]	100 to 1000

Reference: US11931343B2 (ARCUS BIOSCIENCES, INC., priority 2018, dated 2024)
